Measured values from patent publication US9683231B2, “RNAi-based method of drug screening and characterization” (Massachusetts Institute of Technology, priority 2010, dated 2017).
Starred links: 1 amine or outer side, 2 acyl side, 3 side chain; linkers in the order of their positions; H or OH if unused. Positions of bridges follow the written chain, without caps; N, C: chain ends. Non-standard residues stand in square brackets, D forms with d. Residues, ends and D or L forms follow the SMILES beside them. Chains are numbered I, II in the order given. Actinocin(9to1) = Cc1c2oc3c(C)ccc(C(=O)[*:1])c3nc-2c(C(=O)[*:2])c(N)c1=O; NMeV = CN[C@H](C(=O)O)C(C)C; Sar = CNCC(=O)O

Test system: Eμ-Mycp19^Arf−/− mouse lymphoma cells
Assay: Drug treatment and FACS viability (propidium iodide) to determine LD80-90
Format: cell-based
Details: not given

Row | Compound | Concentration used (LD80-90)
1 | N.N.O=C([O-])C1(C(=O)[O-])CCC1.[Pt+2] [Carboplatin] | 16.4 µM

Same assay, conditions: Mus musculus; concentration at which 80-90% of uninfected lymphoma cells were killed; lowest viability of 24, 48 and 72 h between 10% and 20%; read-out: Concentration used (LD80-90)

Row | Compound | IC (80-90)
2 | O=c1[nH]cc(F)c(=O)[nH]1 [5-Fluorouracil] | 0.0305 µM
3 | Nc1nc2nc[nH]c2c(=S)[nH]1 [6-Thioguanine] | 0.054 µM
4 | COc1c(C)cnc(Cn2cnc3c(Cl)nc(N)nc32)c1C [BIIB021] | 0.79 µM
5 | CC(C)C[C@H](NC(=O)[C@H](Cc1ccccc1)NC(=O)c1cnccn1)B(O)O [Bortezomib] | 0.013 µM
6 | CS(=O)(=O)OCCCCOS(C)(=O)=O [Busulfan] | 40.6 µM
7 | C#Cc1cccc(Nc2ncnc3cc(OCCOC)c(OCCOC)cc23)c1 [Erlotinib] | 6.5 µM
8 | COc1cc([C@@H]2c3cc4c(cc3[C@@H](O[C@@H]3O[C@@H]5CO[C@@H](C)O[C@H]5[C@H](O)[C@H]3O)[C@H]3COC(=O)[C@H]23)OCO4)cc(OC)c1O [Etoposide] | 0.034 µM
9 | CS(=O)(=O)N1CCN(Cc2cc3nc(-c4cccc5[nH]ncc45)nc(N4CCOCC4)c3s2)CC1 [GDC 0941] | 5.4 µM
10 | COc1cc2ncnc(Nc3ccc(F)c(Cl)c3)c2cc1OCCCN1CCOCC1 [Gefitinib] | 12.5 µM
11 | Nc1ccn([C@@H]2O[C@H](CO)[C@@H](O)C2(F)F)c(=O)n1 [Gemcitabine] | 0.1 µM
12 | NC(=O)NO [Hydroxyurea] | 78 µM
13 | CCc1c2c(nc3ccc(OC(=O)N4CCC(N5CCCCC5)CC4)cc13)-c1cc3c(c(=O)n1C2)COC(=O)[C@]3(O)CC [Irinotecan] | 2.1 µM
14 | CN(Cc1cnc2nc(N)nc(N)c2n1)c1ccc(C(=O)N[C@@H](CCC(=O)O)C(=O)O)cc1 [Methotrexate] | 0.033 µM

Same assay, conditions: Mus musculus; read-out: Concentration used (LD80-90)

Row | Compound | IC (80-90)
15 | Cn1c(CCCC(=O)O)nc2cc(N(CCCl)CCCl)ccc21 [Bendamustine] | 110 µM
16 | C[C@@]12C(=O)OC(=O)[C@]1(C)[C@H]1CC[C@@H]2O1 [Cantharidin] | 10.7 µM
17 | O=NN(CCCl)C(=O)NCCCl [Carmustine] | 26.7 µM
18 | COc1cccc2c1C(=O)c1c(O)c3c(c(O)c1C2=O)C[C@@](O)(C(C)=O)C[C@@H]3O[C@H]1C[C@H](N)[C@H](O)[C@H](C)O1 [Daunorubicin] | 0.0225 µM
19 | CC[C@H](C)[C@H](NC(=O)[C@H]([C@@H](C)CC)N(C)C(C)=O)C(=O)N[C@H](C(=O)N[C@@H](CC(C)C)C(=O)[C@@]1(C)CO1)[C@@H](C)O [Epoxomicin] | 0.045 µM
20 | Nc1nc(F)nc2c1ncn2[C@@H]1O[C@H](CO)[C@@H](O)[C@@H]1O [Fludarabine] | 3.8 µM
21 | CN1C(=O)[C@]23CC4=CC=C[C@H](O)[C@H]4N2C(=O)[C@@]1(CO)SS3 [Gliotoxin] | 0.3 µM
22 | N[C@@H](Cc1ccc(N(CCCl)CCCl)cc1)C(=O)O [Melphalan] | 3.9 µM

Same assay, conditions: concentration at which 80-90% of uninfected lymphoma cells were killed; lowest viability of 24, 48 and 72 h between 10% and 20%

Row | Compound | Concentration used (LD80-90)
23 | COc1cc2c(cc1O)CC[C@@H]1[C@@H]2CC[C@]2(C)[C@@H](O)CC[C@@H]12 [2-Methoxyestradiol] | 1.8 µM
24 | C=CCNC1=C2C[C@@H](C)C[C@H](OC)[C@H](O)[C@@H](C)/C=C(\C)[C@H](OC(N)=O)[C@@H](OC)/C=C\C=C(/C)C(=O)NC(=CC1=O)C2=O [17 AAG] | 2.6 µM
25 | COc1cc2ncnc(Nc3cccc(Cl)c3)c2cc1OC [AG1478] | 19 µM
26 | O=C1C(=O)N(Cc2ccc(Cl)c(Cl)c2)c2ccccc21 [Apoptosis Activator 2] | 1.9 µM

Same assay, conditions: figure legend 2c

Row | Compound | LD80-90
27 | Cn1c(CCCC(=O)O)nc2cc(N(CCCl)CCCl)ccc21 [Bendamustine] | 110 µM

Same assay, conditions: read-out: Concentration used (LD80-90)

Row | Compound | IC (80-90)
28 | Cc1c2oc3c(C)ccc(C(=O)N[C@@H]4C(=O)N[C@H](C(C)C)C(=O)N5CCC[C@H]5C(=O)N(C)CC(=O)N(C)[C@@H](C(C)C)C(=O)O[C@@H]4C)c3nc-2c(C(=O)N[C@@H]2C(=O)N[C@H](C(C)C)C(=O)N3CCC[C@H]3C(=O)N(C)CC(=O)N(C)[C@@H](C(C)C)C(=O)O[C@@H]2C)c(N)c1=O [Actinomycin D] (I: T[dV]P[Sar][NMeV] / II: T[dV]P[Sar][NMeV]; ester I:1-I:C, II:1-II:C; linker I:N-II:N via Actinocin(9to1)) | 0.0012 µM
29 | CO[C@@]12[C@H](COC(N)=O)C3=C(C(=O)C(C)=C(N)C3=O)N1C[C@@H]1N[C@@H]12 [Mitomycin C] | 0.09 µM
